Experimental data published in ChEMBL document CHEMBL3091362, “Molecular basis for the long duration of action and kinetic selectivity of tiotropium for the muscarinic M3 receptor” (J Med Chem, 2013).

Key:
[1] = biological target: T1, Muscarinic acetylcholine receptor M3 (Homo sapiens, UniProt P20309); assay: biochemical; assay type: cell-based, HEK-293T
Target sequence in this assay (P20309 whole entry): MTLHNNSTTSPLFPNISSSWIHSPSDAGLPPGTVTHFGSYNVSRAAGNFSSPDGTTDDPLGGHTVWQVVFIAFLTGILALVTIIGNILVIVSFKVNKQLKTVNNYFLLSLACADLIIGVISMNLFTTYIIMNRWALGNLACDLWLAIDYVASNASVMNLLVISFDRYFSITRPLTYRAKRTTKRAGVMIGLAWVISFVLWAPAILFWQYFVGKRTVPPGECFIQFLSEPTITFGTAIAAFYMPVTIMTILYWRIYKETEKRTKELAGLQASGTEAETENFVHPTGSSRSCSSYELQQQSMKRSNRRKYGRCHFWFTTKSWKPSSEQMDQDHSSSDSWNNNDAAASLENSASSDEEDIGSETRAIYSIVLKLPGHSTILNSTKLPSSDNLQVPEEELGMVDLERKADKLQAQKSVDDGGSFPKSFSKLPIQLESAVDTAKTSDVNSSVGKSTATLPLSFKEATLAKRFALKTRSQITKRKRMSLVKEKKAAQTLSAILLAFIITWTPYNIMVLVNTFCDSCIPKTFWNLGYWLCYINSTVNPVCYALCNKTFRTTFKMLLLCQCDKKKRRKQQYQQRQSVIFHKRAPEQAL
Description: Binding affinity to wild type human M3 receptor expressed in HEK293T cells up to 24 hrs by radioligand displacement assay

[2] = test system: Muscarinic acetylcholine receptor M3 (Homo sapiens), P20309 [K213A]; settings: HEK-293T
[3] = test system: Muscarinic acetylcholine receptor M3 (Homo sapiens), P20309 [F225A]; settings: HEK-293T
[4] = test system: Muscarinic acetylcholine receptor M3 (Homo sapiens), P20309 [F222A]; settings: HEK-293T
[5] = biological target: T1, Muscarinic acetylcholine receptor M3; settings: HEK-293T
Target sequence in this assay (P20309 whole entry, looked up): as the sequence (P20309 whole entry) above
Description: Binding affinity to wild type human M3 receptor expressed in HEK293T cells assessed as half life by radioligand displacement assay

[6] = test system: Muscarinic acetylcholine receptor M3 (Homo sapiens), P20309 [Q224A]; settings: HEK-293T
[7] = test system: Muscarinic acetylcholine receptor M3 (Homo sapiens), P20309 [E228A]; settings: HEK-293T
[8] = test system: Muscarinic acetylcholine receptor M3 (Homo sapiens), P20309 [D518A]; settings: HEK-293T
[9] = test system: Muscarinic acetylcholine receptor M3 (Homo sapiens), P20309 [R133A]; settings: HEK-293T
[10] = test system: Muscarinic acetylcholine receptor M3 (Homo sapiens), P20309 [E220A]; settings: HEK-293T
[11] = test system: Muscarinic acetylcholine receptor M3 (Homo sapiens), P20309 [K523A]; settings: HEK-293T
Muscarinic acetylcholine receptor M3 (Homo sapiens), P20309 [K523A], sequence (P20309 whole entry K523A): as the sequence (P20309 whole entry) above, with K523A counted along it

Muscarinic acetylcholine receptor M3 (Homo sapiens), P20309 [K213A], sequence (P20309 whole entry K213A): as the sequence (P20309 whole entry) above, with K213A counted along it
Muscarinic acetylcholine receptor M3 (Homo sapiens), P20309 [E228A], sequence (P20309 whole entry E228A): as the sequence (P20309 whole entry) above, with E228A counted along it
Muscarinic acetylcholine receptor M3 (Homo sapiens), P20309 [F225A], sequence (P20309 whole entry F225A): as the sequence (P20309 whole entry) above, with F225A counted along it
Muscarinic acetylcholine receptor M3 (Homo sapiens), P20309 [E220A], sequence (P20309 whole entry E220A): as the sequence (P20309 whole entry) above, with E220A counted along it
Muscarinic acetylcholine receptor M3 (Homo sapiens), P20309 [F222A], sequence (P20309 whole entry F222A): as the sequence (P20309 whole entry) above, with F222A counted along it
Muscarinic acetylcholine receptor M3 (Homo sapiens), P20309 [R133A], sequence (P20309 whole entry R133A): as the sequence (P20309 whole entry) above, with R133A counted along it
Muscarinic acetylcholine receptor M3 (Homo sapiens), P20309 [D518A], sequence (P20309 whole entry D518A): as the sequence (P20309 whole entry) above, with D518A counted along it
Muscarinic acetylcholine receptor M3 (Homo sapiens), P20309 [Q224A], sequence (P20309 whole entry Q224A): as the sequence (P20309 whole entry) above, with Q224A counted along it

`CC(C(=O)O[C@H]1C[C@@H]2[C@H]3O[C@H]3[C@H](C1)[N+]2(C)C)(c1cccs1)c1cccs1` showed a Ki [1] of 0.0501 nM.

With `C[N+]1(C)[C@@H]2C[C@@H](OC(=O)C(O)(c3cccs3)c3cccs3)C[C@H]1[C@@H]1O[C@@H]12` the T1/2 [2] was 20.4 h, the T1/2 [3] was 13.8 h and the T1/2 [4] was 23 h. For the same molecule, the T1/2 [5] was 24.5 h, the T1/2 [6] was 12.4 h and the T1/2 [7] was 20.1 h. For the same molecule, the T1/2 [8] was 22.6 h, the T1/2 [9] was 25.4 h and the T1/2 [10] was 31.7 h. It also gave a T1/2 [11] of 12.5 h.

In the case of `C[N+]1(C)[C@@H]2C[C@H](OC(=O)C(O)(c3ccccc3)c3ccccc3)C[C@H]1[C@@H]1O[C@@H]12`, the Ki [1] is reported as 0.0631 nM.

Work on `C[N+]1(C)[C@@H]2C[C@H](OC(=O)C(CO)(c3cccs3)c3cccs3)C[C@H]1[C@@H]1O[C@@H]12` yielded a Ki [1] of 0.316 nM.

`COC(C(=O)O[C@H]1C[C@@H]2[C@H]3O[C@H]3[C@H](C1)[N+]2(C)C)(c1cccs1)c1cccs1` gave a Ki [1] of 1.58 nM.

`C[N+]1(C)[C@@H]2C[C@H](OC(=O)C(O)c3cccs3)C[C@H]1[C@@H]1O[C@@H]12` (stereo partly specified) was tested, and the Ki [1] was 5.01 nM.

Work on `C[N+]1(C)[C@@H]2C[C@H](OC(=O)C(O)c3ccccc3)C[C@H]1[C@@H]1O[C@@H]12` (stereo partly specified) yielded a Ki [1] of 2 nM.
